Entries after “also recorded” stand apart in the source; their conditions may differ. Read-outs that look alike come from different tables or passages of the source.
What was measured:
CCC-HEL-1 hepatocytes [1] = assay: CCK-8 cytotoxicity assay, CCC-HEL-1; format: cell-based; conditions: Homo sapiens, Hepatocyte; CCK-8, 24 h exposure
Experimental: (§1) Human embryonic kidney 293T (HEK293T) cells and rat renal NRK cells were maintained in high-glucose DMEM supplemented with 10% fetal bovine serum (FBS) and 1% penicillin–streptomycin at 37 °C under 5% CO2 until reaching 70–80%. Human liver CCC-HEL-1 cells were cultured under identical conditions but with 20% FBS, while rat normal hepatocytes were grown in high-glucose MEM containing 20% FBS and 1% penicillin–streptomycin. Stock solutions (500 g/L) of eight pesticide standards were prepared in dimethyl sulfoxide (DMSO) and stored at −20 °C. Working concentrations were freshly diluted in serum-containing culture medium prior to each experiment.
(§2) The cytotoxicity of eight pesticides on four mammalian cell lines was assessed using the Cell Counting Kit-8 (CCK-8) assay. Initially, stock solutions of each pesticide were prepared by dissolving the compound in dimethyl sulfoxide (DMSO) to a final concentration of 500 g/L. For the assay, cells were seeded into 96-well plates at a density of 2 × 10^4 cells per well in 100 µL of medium and incubated for 24 h at 37 °C under a 5% CO2 atmosphere to allow for attachment. Subsequently, the culture medium was replaced with fresh medium containing the pesticides at a series of final concentrations (0, 10, 100, 200, 400, 800, 1000, and 2500 mg/L). Pesticide working concentrations were prepared through serial dilution of the 500 g/L DMSO stock solution, resulting in variable final DMSO concentrations across treatment groups (ranging from 0.002% to 0.5% v/v). A media-only blank (no cells) was included for background absorbance correction, and a solvent control (0.1% DMSO, no pesticide) was used to account for any vehicle effects. All conditions were performed in five replicates. […] At DMSO concentrations ranging from 0.1% to 0.2%, the viability of all four cell lines remained stable above 80%. At a 1% DMSO concentration, the viability of all four cell types was around 50% or higher (Supplementary Figure S5). Following 24 h of exposure, 10 µL of CCK-8 reagent was added to each well. Absorbance Measurement: After an additional 1 h of incubation in the dark, the optical density (OD) at 450 nm was recorded using a microplate reader. Cell viability was calculated by comparing the OD values of treated groups with those of the blank control. Although some test concentrations exceeded the water solubility of the pesticides, the combination of DMSO and serum in the culture medium maintained a uniform exposure system. No precipitation was observed during the experiment, ensuring that the measured effects are attributed to the bioavailable fraction of the compound. […]
(§3) 1. Pesticide Exposure: After removing the medium, fresh medium containing gradient concentrations (0–2500 mg/L) of each pesticide was added (five replicates per concentration).
(§4) Following 24 h of exposure, 10 µL of CCK-8 reagent was added to each well.
(§5) 2. Absorbance Measurement: After 1 h of dark incubation, the OD at 450 nm was measured using a microplate reader.
(§6) 3. Cell Viability Calculation: Viability was determined by comparing the OD values of treated groups to the blank control. […]

IAR hepatocytes = assay: CCK-8 cytotoxicity assay, IAR; format: cell-based; conditions: Rattus norvegicus, Hepatocyte; CCK-8, 24 h exposure
Experimental: as §1, §2, §3, §4, §5, §6

293T renal cells [2] = assay: CCK-8 cytotoxicity assay, 293T; format: cell-based, human; conditions: CCK-8, 24 h exposure; for IC50: Homo sapiens, HEK-293T, 24 h
Experimental: as §1, §2, §3, §4, §5, §6

NRK renal cells = assay: CCK-8 cytotoxicity assay, NRK; format: cell-based; conditions: Rattus norvegicus; CCK-8, 24 h exposure
Experimental: as §1, §2, §3, §4, §5, §6

[3] = tested on: four mammalian cell lines (CCC-HEL-1, 293T, IAR, NRK); assay: CCK-8 cytotoxicity, statements across the four cell lines; format: cell-based, human and rat; conditions: CCK-8 / heatmap of OD values
Experimental: The cytotoxicity of eight pesticides on four mammalian cell lines was assessed using the Cell Counting Kit-8 (CCK-8) assay. Initially, stock solutions of each pesticide were prepared by dissolving the compound in dimethyl sulfoxide (DMSO) to a final concentration of 500 g/L. For the assay, cells were seeded into 96-well plates at a density of 2 × 10^4 cells per well in 100 µL of medium and incubated for 24 h at 37 °C under a 5% CO2 atmosphere to allow for attachment. Subsequently, the culture medium was replaced with fresh medium containing the pesticides at a series of final concentrations (0, 10, 100, 200, 400, 800, 1000, and 2500 mg/L). Pesticide working concentrations were prepared through serial dilution of the 500 g/L DMSO stock solution, resulting in variable final DMSO concentrations across treatment groups (ranging from 0.002% to 0.5% v/v). A media-only blank (no cells) was included for background absorbance correction, and a solvent control (0.1% DMSO, no pesticide) was used to account for any vehicle effects. All conditions were performed in five replicates. […] At DMSO concentrations ranging from 0.1% to 0.2%, the viability of all four cell lines remained stable above 80%. At a 1% DMSO concentration, the viability of all four cell types was around 50% or higher (Supplementary Figure S5). Following 24 h of exposure, 10 µL of CCK-8 reagent was added to each well. Absorbance Measurement: After an additional 1 h of incubation in the dark, the optical density (OD) at 450 nm was recorded using a microplate reader. Cell viability was calculated by comparing the OD values of treated groups with those of the blank control. Although some test concentrations exceeded the water solubility of the pesticides, the combination of DMSO and serum in the culture medium maintained a uniform exposure system. No precipitation was observed during the experiment, ensuring that the measured effects are attributed to the bioavailable fraction of the compound.

CCC-HEL-1 hepatocytes [4] = conditions: CCC-HEL-1 cells, 24 h exposure at median lethal concentration, vs control
Rat = conditions: cited from earlier work
[5] = ref PPDB: Pesticide Properties DataBase, cited from earlier work
293T renal cells [6] = assay: ELISA of toxicity biomarkers (LDH, KIM-1) in culture supernatant, 293T; format: cell-based, human; conditions: 293T cells, 24 h exposure at median lethal concentration, vs control
Experimental: The levels of hepatotoxicity biomarkers (ALT, AST, ALP) and nephrotoxicity biomarkers (KIM-1, LDH) in cell culture supernatant were quantified using commercially available ELISA kits (Cloud-Clone Corp., Wuhan, China). 100 μL of the supernatant was added to the pre-coated wells and incubated according to the manufacturer’s protocol (five replicates). After washing, the appropriate detection antibody and substrate were added, and the absorbance was measured at 450 nm using microplate reader. The concentrations of the biomarkers were determined based on standard curves.

MRP2 in 293T renal cells = assay: MRP2 immunofluorescence staining, 293T; format: cell-based, human; conditions: 293T cells, 24 h at IC50, immunofluorescence, vs untreated controls
Experimental: Cells were seeded at a density of 1 × 10^5 cells per well in immunofluorescence-specific glass-bottom dishes and allowed to adhere for 24 h. […] Following treatment, cells were fixed with 4% paraformaldehyde for 15 min at room temperature and permeabilized with 0.1% Triton X-100 for 10 min. Non-specific binding was blocked with 5% bovine serum albumin (BSA) for 1 h at room temperature. Cells were then incubated with primary antibody against MRP2 (1:300 dilution) overnight at 4 °C. After three washes with PBS, cells were treated with secondary antibody (rabbit anti-IgG, 1:600 dilution) for 1 h at room temperature and washed three times with PBS. Anti-MRP2 antibody (Abcam, ab172630) and Alexa Fluor® 488-conjugated anti-rabbit IgG secondary antibody (Cell Signaling Technology, Danvers, MA, USA, 4412) were used for immunofluorescence staining. Nuclei were counterstained with DAPI Staining Solution (C1005, 10 mL) (Beyotime Biotechnology, Shanghai, China). Fluorescent images were captured using a 10× inverted fluorescence microscope. Quantitative analysis of fluorescence intensity was performed using ImageJ software 2.1.0 (National Institutes of Health, Bethesda, MD, USA).

[7] = cited from earlier work
Colinus virginianus = conditions: in vivo; cited from earlier work
[8] = cell lines as stated in the sentence
[9] = Rat, ref PPDB: Pesticide Properties DataBase

Structure (SMILES)	IC50 (CCC-HEL-1 hepatocytes [1])	IC50 (IAR hepatocytes)	IC50 (293T renal cells [2])	IC50 (NRK renal cells)	cytotoxicity (in words) [3, 8]	AST level (CCC-HEL-1 hepatocytes [4])	Mammals - Acute oral LD50 (Rat; [9])	ADI - Acceptable Daily Intake ([5]; Rat SF=100)	LDH level (CCC-HEL-1 hepatocytes [4])	further results
N#Cc1c(Cl)c(Cl)c(Cl)c(C#N)c1Cl [Chlorothalonil, chlorothalonil]	48.1 µg/mL	21.3 µg/mL	32.5 µg/mL	55.6 µg/mL	relatively lower cytotoxicity at specific concentrations	marked suppression	> 5000 mg/kg	0.015 mg kg⁻¹ bw day⁻¹	–	293T IC50 (293T renal cells [2]): 32.6 µg/mL; cytotoxicity (in words) ([3]; cell lines as stated in the sentence, listed as chlorothalonil): strongest cytotoxicity; also recorded: most cytotoxic agent
CCOP(=S)(OCC)Oc1nc(Cl)c(Cl)cc1Cl [Chlorpyrifos, chlorpyrifos]	633 µg/mL	898 µg/mL	444 µg/mL	990 µg/mL	–	marked suppression	66 mg/kg	0.001 mg kg⁻¹ bw day⁻¹	most dramatic LDH elevation	KIM-1 expression (293T renal cells [6]): significantly decreased; also recorded: statistically significant downregulation; MRP2 protein level (MRP2 in 293T renal cells): most pronounced effect; also recorded: most pronounced downregulation; cytotoxicity (in words) [3]: lowest toxicity; also recorded: minimal direct cytotoxicity
Oc1nc(Cl)c(Cl)cc1Cl [TCPy, 3,5,6-Trichloro-2-pyridinol]	–	–	–	–	–	–	–	–	–	Toxicokinetic Parameter (Concentration), highest level ([7]; metabolite of chlorpyrifos, ref [3] (Huen et al. 2012, ref 76)): 6.27 ng/mL
CC(C)(C)C(O)(CCc1ccc(Cl)cc1)Cn1cncn1 (stereo not shown) [Tebuconazole, tebuconazole]	135 µg/mL	188 µg/mL	41.5 µg/mL	171 µg/mL	relatively lower cytotoxicity at specific concentrations	–	–	–	LDH elevation	ALP level (CCC-HEL-1 hepatocytes [4]): concurrent elevations of both ALT and ALP; ALP level (CCC-HEL-1 hepatocytes [4]; listed as tebuconazole): substantial increases; Mammals - Acute oral LD50 (Rat; rat, in vivo, po): 1700; Birds - Acute LD50 (Colinus virginianus): 1988; ADI - Acceptable Daily Intake ([5]; Dog SF=100): 0.03 mg kg⁻¹ bw day⁻¹
CCCCC(C#N)(Cn1cncn1)c1ccc(Cl)cc1 (stereo not shown) [Myclobutanil, myclobutanil]	455 µg/mL	567 µg/mL	458 µg/mL	588 µg/mL	strong cytotoxic effects	–	–	0.025 mg kg⁻¹ bw day⁻¹	LDH elevation	LDH release (293T renal cells [6]): significantly elevated LDH release; MRP2 protein level (MRP2 in 293T renal cells): most pronounced effect; Toxicokinetic Parameter (Concentration), mean ([7]; parent compound, ref [1] (Ding et al. 2023, ref 74)): 38.3 ng/g creatinine; Mammals - Acute oral LD50 (Rat; rat, in vivo, po): 1600 mg/kg; Birds - Acute LD50 (Colinus virginianus): 510 mg/kg
CC(C)(C)C(=O)C(Oc1ccc(Cl)cc1)n1cncn1 (stereo not shown) [Triadimefon, triadimefon]	219 µg/mL	878 µg/mL	107 µg/mL	977 µg/mL	strong cytotoxic effects	–	–	–	–	ADI - Acceptable Daily Intake ([5]; basis species not given): 0.03 mg kg⁻¹ bw day⁻¹
CC1COC(Cn2cncn2)(c2ccc(Oc3ccc(Cl)cc3)cc2Cl)O1 (stereo not shown) [Difenoconazole, difenoconazole]	374 µg/mL	132 µg/mL	209 µg/mL	498 µg/mL	strong cytotoxic effects	increased levels	–	0.01 mg kg⁻¹ bw day⁻¹	–	KIM-1 expression (293T renal cells [6]): significantly decreased; ALT level (CCC-HEL-1 hepatocytes [4]): reduced ALT activity; AST level (CCC-HEL-1 hepatocytes [4]; listed as difenoconazole): elevated AST levels
Cc1cc(C)nc(Nc2ccccc2)n1 [Pyrimethanil, pyrimethanil]	505 µg/mL	362 µg/mL	111 µg/mL	192 µg/mL	–	–	4150 mg/kg	0.17 mg kg⁻¹ bw day⁻¹	LDH elevation	LDH release (293T renal cells [6]): significantly elevated LDH release; LDH release (293T renal cells [6]; listed as pyrimethanil): significantly increased; ALP level (CCC-HEL-1 hepatocytes [4]): isolated ALP elevation; ALT level (CCC-HEL-1 hepatocytes [4]): normal ALT levels; ALP level (CCC-HEL-1 hepatocytes [4]; listed as pyrimethanil): substantial increases

Source: PMC12656329, “Specific Hepatorenal Toxicity and Cross-Species Susceptibility of Eight Representative Pesticides” (Toxics, 2025)
